Measurements from ChEMBL document CHEMBL1139417, “Synthesis and biological evaluation of novel 3'-N-tert-butylsulfonyl analogues of docetaxel” (Bioorg Med Chem Lett, 2008).

Legend:
Assay type in all cases: functional, cell-based
[1] = Cytotoxicity against human Eca109 cells; settings: ECa-109
SMMC-7721 = experiment: Cytotoxicity against human SMMC7721 cells
HCT-8 = experiment: Cytotoxicity against human HCT8 cells
HeLa = experiment: Cytotoxicity against human HeLa cells

Row | Compound | IC50 [1] | IC50 (SMMC-7721) | IC50 (HCT-8) | IC50 (HeLa)
1 | CC(=O)O[C@@]12CO[C@@H]1C[C@H](O)[C@@]1(C)C(=O)[C@H](O)C3=C(C)[C@@H](OC(=O)[C@H](O)[C@@H](NS(=O)(=O)C(C)(C)C)c4ccccc4)C[C@@](O)([C@@H](OC(=O)c4ccccc4)[C@H]21)C3(C)C | 7140 nM | > 10000 nM | 9120 nM | 9540 nM
2 | CC(=O)O[C@@]12CO[C@@H]1C[C@H](O)[C@@]1(C)C(=O)[C@H](O)C3=C(C)[C@@H](OC(=O)[C@H](O)[C@@H](NS(=O)(=O)C(C)(C)C)c4cccc[n+]4[O-])C[C@@](O)([C@@H](OC(=O)c4ccccc4)[C@H]21)C3(C)C | 1950 nM | 2540 nM | 2850 nM | 2540 nM
3 | CC(=O)O[C@@]12CO[C@@H]1C[C@H](O)[C@@]1(C)C(=O)[C@H](O)C3=C(C)[C@@H](OC(=O)[C@H](O)[C@@H](NS(=O)(=O)C(C)(C)C)c4ccc[n+]([O-])c4)C[C@@](O)([C@@H](OC(=O)c4ccccc4)[C@H]21)C3(C)C | 2520 nM | 2450 nM | 3030 nM | 2670 nM
4 | CC(=O)O[C@@]12CO[C@@H]1C[C@H](O)[C@@]1(C)C(=O)[C@H](O)C3=C(C)[C@@H](OC(=O)[C@H](O)[C@@H](NC(=O)OC(C)(C)C)c4ccccc4)C[C@@](O)([C@@H](OC(=O)c4ccccc4)[C@H]21)C3(C)C [DOCETAXEL] | 2600 nM | 2730 nM | 3070 nM | 3030 nM
5 | CC(=O)O[C@H]1C(=O)[C@@]2(C)[C@H]([C@H](OC(=O)c3ccccc3)[C@]3(O)C[C@H](OC(=O)[C@H](O)[C@@H](NC(=O)c4ccccc4)c4ccccc4)C(C)=C1C3(C)C)[C@]1(OC(C)=O)CO[C@@H]1C[C@@H]2O [PACLITAXEL] | 2730 nM | 2860 nM | 3290 nM | –
